# The Kinase Knowledgebase extract (Sharma et al. 2016)
# How the values were obtained:
# CDK2 = CDK2 (UniProt P24941); assay: Enzyme Assay
# CDK2 (human) [1] = target: CDK2 (human) (UniProt P24941); assay: Cell-Based Assay
# EGFR = EGFR (UniProt P00533)
# CDK2 (human) [2] = target: CDK2 (human) (UniProt P24941); conditions: A431
# EGFR, sequence (P00533 whole entry, looked up): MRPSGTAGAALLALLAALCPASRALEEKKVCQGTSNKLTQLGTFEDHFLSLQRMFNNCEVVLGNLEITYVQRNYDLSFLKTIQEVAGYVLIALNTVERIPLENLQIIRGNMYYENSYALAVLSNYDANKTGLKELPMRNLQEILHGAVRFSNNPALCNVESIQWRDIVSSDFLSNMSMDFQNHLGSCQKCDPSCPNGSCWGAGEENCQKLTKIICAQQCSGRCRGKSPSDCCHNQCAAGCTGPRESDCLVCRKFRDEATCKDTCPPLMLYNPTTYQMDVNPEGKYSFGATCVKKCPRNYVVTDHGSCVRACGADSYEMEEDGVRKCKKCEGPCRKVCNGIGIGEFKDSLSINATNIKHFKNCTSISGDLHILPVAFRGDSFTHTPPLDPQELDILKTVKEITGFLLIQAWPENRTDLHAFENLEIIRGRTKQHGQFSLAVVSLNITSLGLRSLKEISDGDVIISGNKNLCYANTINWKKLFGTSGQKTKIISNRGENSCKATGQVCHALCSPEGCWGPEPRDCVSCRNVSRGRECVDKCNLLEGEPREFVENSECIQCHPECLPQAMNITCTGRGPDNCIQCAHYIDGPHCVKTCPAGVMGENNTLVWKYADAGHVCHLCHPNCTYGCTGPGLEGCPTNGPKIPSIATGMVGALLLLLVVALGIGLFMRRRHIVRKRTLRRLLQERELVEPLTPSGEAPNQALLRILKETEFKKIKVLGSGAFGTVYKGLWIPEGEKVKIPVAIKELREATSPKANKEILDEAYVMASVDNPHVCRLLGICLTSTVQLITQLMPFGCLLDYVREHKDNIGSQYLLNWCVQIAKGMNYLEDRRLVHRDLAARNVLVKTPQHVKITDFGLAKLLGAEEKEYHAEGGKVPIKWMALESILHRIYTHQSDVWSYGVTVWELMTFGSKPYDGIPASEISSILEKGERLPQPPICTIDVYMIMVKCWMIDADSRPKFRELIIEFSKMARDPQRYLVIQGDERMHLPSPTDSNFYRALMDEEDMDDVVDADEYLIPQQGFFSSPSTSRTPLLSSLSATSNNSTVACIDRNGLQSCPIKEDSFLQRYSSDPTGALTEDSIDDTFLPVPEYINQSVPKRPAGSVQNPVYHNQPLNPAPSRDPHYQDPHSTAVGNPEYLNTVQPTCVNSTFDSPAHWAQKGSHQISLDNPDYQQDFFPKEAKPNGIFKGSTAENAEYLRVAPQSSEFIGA
SMILES,IC50 (CDK2),GI50 (CDK2 (human) [1]; hct-116),GI50 (CDK2 (human) [1]; snu638),IC50 (EGFR),GI50 (CDK2 (human) [2])
CC(C)n1ncc2c(NCc3ccccc3)nc(NCCO)nc21,> 100 µM,57.6 µM,25.2 µM,> 100 µM,35.6 µM
Cn1ncc2c(Nc3cccc(Br)c3)nc(NCCO)nc21,> 100 µM,> 100 µM,18.2 µM,47.9 µM,31.9 µM
Cn1ncc2c(Nc3cccc(F)c3)nc(N(CCO)CCO)nc21,36.3 µM,8.89 µM,2.56 µM,29.5 µM,3.94 µM
CC(C)n1ncc2c(Nc3cccc(Br)c3)nc(N(CCO)CCO)nc21,29.5 µM,5.06 µM,4.1 µM,> 100 µM,2.58 µM
OCCNc1nc(NCc2ccccc2)c2cn[nH]c2n1,29.5 µM,4.5 µM,20.8 µM,93.3 µM,26.6 µM
Cn1ncc2c(NCc3ccccc3)nc(NCCO)nc21,> 100 µM,> 100 µM,37.1 µM,> 100 µM,42.7 µM
CC(C)n1ncc2c(Nc3cccc(F)c3)nc(NCCO)nc21,49 µM,19.3 µM,7.57 µM,> 100 µM,7.8 µM
Cn1ncc2c(NCc3ccc(N)cc3)nc(NCCO)nc21,> 100 µM,> 100 µM,96.8 µM,> 100 µM,58.9 µM
OCCN(CCO)c1nc(Nc2cccc(Br)c2)c2cn[nH]c2n1,3.8 µM,> 100 µM,38.9 µM,36.3 µM,> 100 µM
CC(C)n1ncc2c(NCc3ccccc3)nc(N(CCO)CCO)nc21,> 100 µM,47.7 µM,26.1 µM,> 100 µM,21.9 µM
OCCNc1nc(Nc2cccc(Br)c2)c2cn[nH]c2n1,8.1 µM,> 100 µM,69.2 µM,> 100 µM,> 100 µM
Cn1ncc2c(NCc3ccc([N+](=O)[O-])cc3)nc(NCCO)nc21,17.8 µM,48.5 µM,24.9 µM,> 100 µM,23.4 µM
Cn1ncc2c(Nc3cccc(F)c3)nc(NCCO)nc21,21.4 µM,28.2 µM,15.8 µM,> 100 µM,16.3 µM
OCCNc1nc(Nc2cccc(F)c2)c2cn[nH]c2n1,0.5 µM,> 100 µM,> 100 µM,66.1 µM,28.9 µM
CC(C)n1ncc2c(Nc3cccc(Br)c3)nc(NCCO)nc21,28.2 µM,6.46 µM,4.28 µM,> 100 µM,2.19 µM
Cn1ncc2c(Nc3cccc(Br)c3)nc(N(CCO)CCO)nc21,> 100 µM,16.6 µM,6.2 µM,> 100 µM,2.94 µM
Cn1ncc2c(NCc3ccccc3)nc(N(CCO)CCO)nc21,> 100 µM,53.4 µM,25.3 µM,77.6 µM,24.3 µM
COc1cccc2c1C(=O)c1c(O)c3c(c(O)c1C2=O)C[C@@](O)(C(=O)CO)CC3O[C@H]1C[C@H](N)[C@H](O)[C@H](C)O1 (some centres not stated),–,0.13 µM,–,–,0.18 µM
OCCN(CCO)c1nc(NCc2ccccc2)c2cn[nH]c2n1,37.2 µM,93.6 µM,29 µM,55 µM,> 100 µM
CC(C)n1ncc2c(NCc3ccc([N+](=O)[O-])cc3)nc(NCCO)nc21,46.8 µM,77.7 µM,23.4 µM,> 100 µM,32 µM
COc1cccc(Nc2nc(N(CCO)CCO)nc3c2cnn3C(C)C)c1,66 µM,12.6 µM,7.92 µM,> 100 µM,4.43 µM
CC(C)n1ncc2c(NCc3ccc(N)cc3)nc(NCCO)nc21,> 100 µM,> 100 µM,38.2 µM,> 100 µM,55.3 µM
OCCN(CCO)c1nc(Nc2cccc(F)c2)c2cn[nH]c2n1,0.9 µM,> 100 µM,> 100 µM,> 100 µM,54.3 µM
CC(C)n1ncc2c(Nc3cccc(F)c3)nc(N(CCO)CCO)nc21,47.9 µM,10.9 µM,7.95 µM,> 100 µM,6.25 µM
COc1cccc(Nc2nc(NCCO)nc3[nH]ncc23)c1,3.1 µM,38.2 µM,17.1 µM,> 100 µM,> 100 µM
COc1cccc(Nc2nc(N(CCO)CCO)nc3[nH]ncc23)c1,10.2 µM,> 100 µM,> 100 µM,> 100 µM,> 100 µM
COc1cccc(Nc2nc(NCCO)nc3c2cnn3C(C)C)c1,> 100 µM,21.4 µM,7.55 µM,> 100 µM,13.1 µM
COc1cccc(Nc2nc(N(CCO)CCO)nc3c2cnn3C)c1,57.5 µM,17.2 µM,10.5 µM,> 100 µM,12.9 µM
COc1cccc(Nc2nc(NCCO)nc3c2cnn3C)c1,> 100 µM,90.4 µM,21.7 µM,> 100 µM,19.1 µM
